These results are taken from patent US10716749B2, “Methods and compositions for treating a renal disease condition in a subject” (Palo Alto Investors, priority 2005, dated 2020).

Assay [1] has as its system Patients with a clinical diagnosis of hypertension. Nature of the assay: Intrarenal administration of a renin inhibitor to treat hypertension. Conditions: weekly infusions via an intrarenal catheter; control: saline infusions; sphygmomanometer. It counts as in vivo, human. As for the experimental part: Patients are enrolled on the basis of a clinical diagnosis of hypertension based on serial systolic and diastolic blood pressure measurements by sphygmomanometer. Treatment subjects are treated by weekly infusions of Aliskiren via an intrarenal catheter.

Assay [2] concerns Patients with anticipated use of radiocontrast prior to diagnostic coronary catherization. Put plainly: Intrarenal administration of metoprolol to prevent contrast nephropathy. Type of assay: in vivo, human. Conditions: intrarenal infusion 1 hour prior to the procedure; patients receiving radiocontrast. The method, then:
Patients are prospectively enrolled on the basis of anticipated use of radiocontrast prior to a scheduled diagnostic coronary catherization. Treatment subjects are treated by intrarenal infusion of metoprolol 1 hour prior to the procedure.

Turning to `COCCCOc1cc(C[C@@H](C[C@H](N)[C@@H](O)C[C@H](C(=O)NCC(C)(C)C(N)=O)C(C)C)C(C)C)ccc1OC` [Aliskiren], in assay [1], the “diastolic blood pressure measurements compared to control” value is “significant reduction” and the “systolic blood pressure measurements compared to control” value is listed as “significant reduction”.

On to `COCCc1ccc(OCC(O)CNC(C)C)cc1` (stereo not drawn) [metoprolol], for which the “incidence of contrast nephropathy (as indicated by a greater than 25% increase in serum creatinine post-procedure) as compared to control” value in assay [2] is listed as “significant reduction”.
